# Experimental data from patent publication US20040254162A1, “Oxazolidinone derivatives as antimicrobials” (priority 2001, published 2004).
# Tests used:
# Experiment in all cases: MIC, agar incorporation method
# VRE 6A (Ent. faecium 6A) = conditions: agar incorporation
# Strep. pne. ATCC 6303 = conditions: agar incorporation
# S. aureus ATCC 25923 = conditions: agar incorporation
# MRSA 15187 = conditions: agar incorporation
# MRSA 33 = conditions: agar incorporation
# MRSA 562 = conditions: agar incorporation; Table 1
# Ent. faecalis ATCC 29212 = conditions: agar incorporation
# Strep. pyog. ATCC 19615 = conditions: agar incorporation
# S. pneum AB 34 = conditions: agar incorporation
MIC VRE 6A (VRE 6A (Ent. faecium 6A)),MIC S. pneum 6303 (Strep. pne. ATCC 6303),MIC S. aureus 25923 (S. aureus ATCC 25923),MIC MRSA 15187 (MRSA 15187),MIC MRSA 33 (MRSA 33),MIC MRSA 562 (MRSA 562),MIC E. faecalis 29212 (Ent. faecalis ATCC 29212),MIC S. pyogenes 19615 (Strep. pyog. ATCC 19615),MIC S. pneum AB 34 (S. pneum AB 34),SMILES
2 µg/mL,4 µg/mL,4 µg/mL,2 µg/mL,2 µg/mL,2 µg/mL,2 µg/mL,2 µg/mL,4 µg/mL,"CC(=O)NC[C@H]1CN(c2ccc(N3CCN(Cc4cc(Br)cs4)CC3)c(F)c2)C(=O)O1 [Compound No. 14, (S)-N-[[3-[3-Fluoro-4-[N-1[4-{2-thienyl(4-bromo)methyl}]piperazinyl]phenyl]-2-oxo-5-oxazolidinyl]methyl]acetamide]"
16 µg/mL,8 µg/mL,2 µg/mL,2 µg/mL,2 µg/mL,2 µg/mL,16 µg/mL,8 µg/mL,8 µg/mL,CC(=O)NC[C@H]1CN(c2ccc(N3CCN(Cc4ccc(C5OCCCO5)o4)CC3)c(F)c2)C(=O)O1 [Compound No. 66]
4 µg/mL,4 µg/mL,8 µg/mL,4 µg/mL,4 µg/mL,–,8 µg/mL,1 µg/mL,8 µg/mL,"CC(=O)NC[C@H]1CN(c2ccc(N3CCN(Cc4ccc(Cl)s4)CC3)c(F)c2)C(=O)O1 [Compound No. 10, (S)-N[[3-[3-Fluoro-4-[N-1[4-{2-thienyl(5-chloro)methyl}]piperazinyl]phenyl]2-oxo-5-oxazolidinyl]methyl]acetamide]"
8 µg/mL,4 µg/mL,16 µg/mL,4 µg/mL,4 µg/mL,–,8 µg/mL,4 µg/mL,4 µg/mL,"CC(=O)NC[C@H]1CN(c2ccc(N3CCN(C(=O)c4ccc(CCl)o4)CC3)c(F)c2)C(=O)O1 [Compound No. 05, (S)-N-[[3-Fluoro-4-[N-1[4-(5-chloromethyl-2-furoyl)piperazinyl]phenyl]-2-oxo-5-oxazolidinyl]methyl]acetamide]"
4 µg/mL,–,2 µg/mL,1 µg/mL,1 µg/mL,1 µg/mL,4 µg/mL,0.5 µg/mL,2 µg/mL,"CC(=O)NC[C@H]1CN(c2ccc(N3CCC(N(C)Cc4ccc([N+](=O)[O-])s4)CC3)c(F)c2)C(=O)O1 [Compound No. 51, (S)-N-[[3-[4-[4-(N-methyl-N-2-thienyl(5-nitro)methyl)aminopiperidine-1-yl]-3-fluorophenyl]-2-oxo-oxazolidin-5-yl]methyl]acetamide]"
16 µg/mL,8 µg/mL,2 µg/mL,2 µg/mL,2 µg/mL,–,8 µg/mL,4 µg/mL,8 µg/mL,"CC(=O)NC[C@H]1CN(c2ccc(N3CCN(Cc4ccc(C=NO)o4)CC3)c(F)c2)C(=O)O1 [Compound No. 60, (S)-N-[[3-[3-Fluoro-4-[N-1-[4-(2-furyl-(5-aldoxime)methyl}]piperazinyl]phenyl]-2-oxo-5-oxazolidinyl]methyl]acetamide]"
2 µg/mL,2 µg/mL,2 µg/mL,2 µg/mL,4 µg/mL,–,2 µg/mL,1 µg/mL,1 µg/mL,"CC(=O)NC[C@H]1CN(c2ccc(N3CCN(C(=O)c4ccco4)CC3)c(F)c2)C(=O)O1 [Compound No. 01, (S)-N-[[3-[3-Fluoro-4-[N-1-[4-(2-furoyl)piperazinyl]]phenyl]-2-oxo-5-oxazolidinyl]methyl]acetamide]"
